In PubChem BioAssay AID1963837 (Molecular Pharmacology Branch, DTP, NCI, 2024):
pIC50: −log10 of the molar value.

Tested on: 843126-344-R-J1-PDC complex spheroid viability
Assay: Anticancer human tumor 843126-344-R-J1-PDC patient-derived melanoma cell line growth inhibition [POLQ]
Details: for pIC50: curve of first compound; for viability, T/C: stronger effect = lower value; active = viability on the fitted dose curve at most 10% of control; inactive = the rest
Method: Multicellular complex tumor spheroid response to Polymerase (POL) inhibitors (novobiocin, ART-558, RP6685) in combination with a variety of drugs and investigational agents in selected tumor cell lines
The POL inhibitors (novobiocin, ART-558, and RP6685) were evaluated both individually and in combination with standard of care and investigational anticancer small molecules within a complex spheroid model of solid tumors. . Complex spheroids include a stromal component modeled by human endothelial cells (HUVEC) and fibroblasts modeled by human mesenchymal stem cells (MSCs). The concentration ranges selected for each drug and investigational agent were based upon clinically achievable concentrations if the clinical Cmax of the agent was known.
Compounds. The drugs and investigational agents: novobiocin (NSC847541), ART-558 (NSC835418), RP-6685 (NSC848927), peposertib (NSC802822), ceralasertib (NSC780249), elimusertib (NSC800525), camonsertib (NSC841442), AZD-1390 (NSC803789), olaparib (NSC753686), talazoparib (NSC767125), rucaparib (NSC756644), sotorasib (NSC818433), MRTX-1133 (NSC836407), SN-38 (NSC673596), topotecan (NSC609699), epotoside (NSC141540), doxorubicin (NSC123127), gemcitabine (NSC613327), 5-fluorouracil (NSC19893), paclitaxel (NSC125973), vemurafenib (NSC761431), MSA-2 (NSC828583), SN-011 (NSC837082), adavosertib (NSC754352), prexasertib (NSC758257), carboplatin (NSC241240) and oxaliplatin (NSC266046), were obtained from the National Cancer Institute (NCI) Developmental Therapeutics Program Chemical Repository (21). The FDA-approved anticancer drug set is available from the Developmental Therapeutics Program at https://dtp.cancer.gov/organization/dscb/obtaining/. […] The stock solutions were prepared in dimethyl sulfoxide (DMSO, Sigma-Aldrich, St. Louis, MO, cat. D2650), except for the platinum compounds which were prepared in saline (Quality Biological, Gaithersburg, MD, cat. 114-055-101), at 800-fold the tested concentration and stored at -70 degrees C prior to their use. All drugs and investigational agents were tested over a range starting from a high concentration at or near the clinical Cmax and decreasing in half-log increments. If the clinical Cmax for an agent had not been determined, the highest concentration tested was 10 microM, except for SN-38, which was tested at a high concentration of 1 microM.
Cell Culture. All cells were maintained in an incubator at 37 degrees C and 5% CO2 with 95% humidity. The PDC lines were cultured according to standard operating procedures established by the NCI PDMR (https://pdmr.cancer.gov). Table 3 of the manuscript, lists the cell lines along with the number of the three cell types plated to form the mct-spheroids and media for tumor cell growth. After thawing, all PDC lines, except 997537-175-T-J1-PDC and 415267-285-R-J2-PDC, were cultured in Matrigel-coated flasks prepared with a working solution of 1X Ham's F-12 nutrient mix, without supplementation (Thermo Fisher Scientific, cat. 11765054), 100 U/mL penicillin-streptomycin (Thermo Fisher Scientific, cat. 15140122), and 2.5% Matrigel (Corning Inc., Corning, NY, cat. 354248) for the first three passages. The two PDC lines 997537-175-T-J1-PDC and 415267-285-R-J2-PDC were cultured on uncoated flasks. The 857933-349-R-J2-PDC line was cultured in 6C/Colon 1B media containing advanced DMEM/F-12 (Thermo Fisher Scientific, cat. 12634028), 10 mM HEPES (Thermo Fisher Scientific, cat. 15630080), 1X GlutaMAX supplement (Thermo Fisher Scientific, cat. 35050061), 0.1 mg/mL primocin (InvivoGen, San Diego, CA, cat. ant-pm-2), 10% defined fetal bovine serum, heat inactivated (HyClone Laboratories Inc., Logan, UT, cat. SH30070.03HI), 50% L-WRN conditioned media (ATCC, cat. CRL-3276), 1.25 mM N-Acetyl-L-cysteine (Sigma-Aldrich, cat. A9165), 10 mM nicotinamide (Sigma-Aldrich, cat. N0636), 1X B-27 supplement (Thermo Fisher Scientific, cat. 17504044), 1X N-2 supplement (Thermo Fisher Scientific, cat. […]

[1] = second compound 0.0316 µM, first compound 0.0316 µM
[2] = second compound 0.0316 µM, first compound 0.1 µM
[3] = second compound 0.0316 µM, first compound 0.316 µM
[4] = second compound 0.0316 µM, first compound 1 µM
[5] = second compound 0.1 µM, first compound 0.0316 µM
[6] = second compound 0.1 µM, first compound 0.1 µM
[7] = second compound 0.1 µM, first compound 0.316 µM
[8] = second compound 0.1 µM, first compound 1 µM
[9] = second compound 0.316 µM, first compound 0.0316 µM
[10] = second compound 0.316 µM, first compound 0.1 µM
[11] = second compound 0.316 µM, first compound 0.316 µM
[12] = second compound 0.316 µM, first compound 1 µM
[13] = second compound 1 µM, first compound 0.0316 µM
[14] = second compound 1 µM, first compound 0.1 µM
[15] = second compound 1 µM, first compound 0.316 µM
[16] = second compound 1 µM, first compound 1 µM
[17] = second compound 3.16 µM, first compound 0.0316 µM
[18] = second compound 3.16 µM, first compound 0.1 µM
[19] = second compound 3.16 µM, first compound 0.316 µM
[20] = second compound 3.16 µM, first compound 1 µM
[21] = second compound 10 µM, first compound 0.0316 µM
[22] = second compound 10 µM, first compound 0.1 µM
[23] = second compound 10 µM, first compound 0.316 µM
[24] = second compound 10 µM, first compound 1 µM
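Throughout, for viability, T/C: spheroids exposed to drugs for seven days before readout.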

C=CCn1c(=O)c2cnc(Nc3ccc(N4CCN(C)CC4)cc3)nc2n1-c1cccc(C(C)(C)O)n1 + COC1C(OC(N)=O)C(O)C(Oc2ccc3c(O)c(NC(=O)c4ccc(O)c(CC=C(C)C)c4)c(=O)oc3c2C)OC1(C)C
inactive: viability, T/C (second compound 0.0316 µM, first compound 0.00316 µM) 114% | viability, T/C (second compound 0.0316 µM, first compound 0.01 µM) 84% | viability, T/C [1] 86.6% | viability, T/C [2] 81.5% | viability, T/C [3] 89.4% | viability, T/C [4] 80% | viability, T/C (second compound 0.1 µM, first compound 0.00316 µM) 93.7% | viability, T/C (second compound 0.1 µM, first compound 0.01 µM) 90.4% | viability, T/C [5] 99.5% | viability, T/C [6] 82.8% | viability, T/C [7] 85.7% | viability, T/C [8] 70.6% | viability, T/C (second compound 0.316 µM, first compound 0.00316 µM) 87% | viability, T/C (second compound 0.316 µM, first compound 0.01 µM) 115% | viability, T/C [9] 98.8% | viability, T/C [10] 88.5% | viability, T/C [11] 81.2% | viability, T/C [12] 86.6% | viability, T/C (second compound 1 µM, first compound 0.00316 µM) 78.4% | viability, T/C (second compound 1 µM, first compound 0.01 µM) 90.3% | viability, T/C [13] 86.6% | viability, T/C [14] 85.1% | viability, T/C [15] 84.2% | viability, T/C [16] 76.9% | viability, T/C (second compound 3.16 µM, first compound 0.00316 µM) 83.6% | viability, T/C (second compound 3.16 µM, first compound 0.01 µM) 106% | viability, T/C [17] 98.5% | viability, T/C [18] 72.7% | viability, T/C [19] 81.7% | viability, T/C [20] 84.2% | viability, T/C (second compound 10 µM, first compound 0.00316 µM) 89.8% | viability, T/C (second compound 10 µM, first compound 0.01 µM) 97.4% | viability, T/C [21] 94.8% | viability, T/C [22] 102% | viability, T/C [23] 91.9% | viability, T/C [24] 65%
< 6.00: pIC50 (second compound 0.0316 µM) | pIC50 (second compound 0.1 µM) | pIC50 (second compound 0.316 µM) | pIC50 (second compound 1 µM) | pIC50 (second compound 3.16 µM) | pIC50 (second compound 10 µM)

COc1cc(C2c3cc4c(cc3C(OC3OC5COC(C)OC5C(O)C3O)C3COC(=O)C23)OCO4)cc(OC)c1O (centres undefined) + COC1C(OC(N)=O)C(O)C(Oc2ccc3c(O)c(NC(=O)c4ccc(O)c(CC=C(C)C)c4)c(=O)oc3c2C)OC1(C)C
< 5.00: pIC50 (second compound 0.0316 µM) | pIC50 (second compound 0.1 µM) | pIC50 (second compound 0.316 µM) | pIC50 (second compound 3.16 µM)
5.04: pIC50 (second compound 1 µM)
5.11: pIC50 (second compound 10 µM)
inactive: viability, T/C [1] 86% | viability, T/C [2] 89.4% | viability, T/C [3] 95.3% | viability, T/C [4] 79.8% | viability, T/C (second compound 0.0316 µM, first compound 3.16 µM) 57% | viability, T/C (second compound 0.0316 µM, first compound 10 µM) 50.8% | viability, T/C [5] 102% | viability, T/C [6] 91.3% | viability, T/C [7] 88.2% | viability, T/C [8] 86% | viability, T/C (second compound 0.1 µM, first compound 3.16 µM) 60% | viability, T/C (second compound 0.1 µM, first compound 10 µM) 54.5% | viability, T/C [9] 98% | viability, T/C [10] 89.3% | viability, T/C [11] 97.5% | viability, T/C [12] 83.6% | viability, T/C (second compound 0.316 µM, first compound 3.16 µM) 60.7% | viability, T/C (second compound 0.316 µM, first compound 10 µM) 52.1% | viability, T/C [13] 81.8% | viability, T/C [14] 82.6% | viability, T/C [15] 97% | viability, T/C [16] 82.1% | viability, T/C (second compound 1 µM, first compound 3.16 µM) 78.9% | viability, T/C (second compound 1 µM, first compound 10 µM) 47.3% | viability, T/C [17] 85.8% | viability, T/C [18] 93.6% | viability, T/C [19] 89.5% | viability, T/C [20] 91% | viability, T/C (second compound 3.16 µM, first compound 3.16 µM) 64.4% | viability, T/C (second compound 3.16 µM, first compound 10 µM) 57.8% | viability, T/C [21] 114% | viability, T/C [22] 96.3% | viability, T/C [23] 91.8% | viability, T/C [24] 85.1% | viability, T/C (second compound 10 µM, first compound 3.16 µM) 58.5% | viability, T/C (second compound 10 µM, first compound 10 µM) 47.2%
